{"source": "patent US20030087830A1", "about": "“Low molecular weight components of cartilage, complexes of metals with amino acids, DI-peptides and analogs thereof; processes for preparation and therapeutic uses thereof” (priority 2001, published 2003)", "key": {"Endothelial cells [1]": {"test_system": "Endothelial cells", "test": "Endothelial cell migration assay (VEGF, modified Boyden chamber)", "type": "cell-based", "description": "The endothelial cell migration assay was performed to determine the ability of test samples to inhibit the chemotaxic activity of vascular endothelial growth factor (VEGF;R/D System, MN) using a modified Boyden chamber (Transwell™, Corning/Costar). Briefly, polyvinylidene difluoride filters (PVDF) were coated with Pronectin F (Biosources, CA), a constituent of basement membrane barrier. Boyden chambers were assembled by adding VEGF to the culture media in the lower chamber (chemoattractant). Endothelial cells suspended in cultured media in the presence or the absence of the test samples were added to the upper chamber. The chambers were then incubated for a period of 4.5 hours at 37° C. At the end of the incubation period, the cells from both side of the PVDF membrane were fixed with 3.7% formaldehyde. Cells from the upper surface of the membrane were mechanically removed, and the cells remaining on the underside of the membrane were stained with crystal violet (0.5%; Sigma). Cells were then carefully rinsed and the dye fixed to the cells was quantified with a microplate reader ([…]) after its solubilization with a solution of 50% citric acid (0.1M) in water and 50% ethanol."}, "[2]": {"test_system": "Endothelial cells (HUVEC, BAEC)", "test": "Endothelial cell proliferation", "type": "cell-based, human / bovine", "conditions": "48 hours; copper equivalent; NA = less than 50% at 1.25 mM copper equivalent; read-out: EC proliferation (EC50 mM)", "description": "(§1) Endothelial and tumor cell proliferation assays were performed to determine the ability of test samples to inhibit endothelial cell proliferation (antiangiogenic activity), normal cell proliferation,and tumor cell proliferation.\n(§2) Endothelial cells (Human umbilical vein endothelial cells (HUVEC), bovine aortic endothelial cells (BAEC)), skeletal muscle cells, human dermal fibroblasts (all from Clonetics, Walkersville, Md.) were respectively maintained in EBM-2, MDEM, SKGM and FGFM-2 complete media according to manufacturer's instructions. Tumor rat glioblastoma cell line (C6) was maintained in DMEM (Sigma, Oaksville, Ontario) supplemented with 10% fetal calf serum (FCS) and antibiotics in 5% CO2. Briefly, cells seeded in 96-well sterile tissue culture dishes were treated with increasing concentrations of different test samples for a period of 48 hours at 37° C. Cell number was then evaluated by a calorimetric assay using the cell proliferation reagent tetrazolium salt and the fluorimetric assay using DNA dye (Hoescht) according to the procedure established by the manufacturer (Boehringer Mannhein). The conversion of these tetrazolium salts into formazan occurs only in metabolically active cells. The percentage of cell inhibition was determined by comparison to untreated cells.\n(§3) According to the endothelial cell proliferation assay, the relative effectiveness of two compounds is compared by reference to the EC50 thereof. The EC50 is the concentration of compound at which the number of endothelial cells is reduced by 50% as compared to control. The efficacy of the test samples in EVT is established by the percent of eggs with altered angiogenesis at a given inhibitor dose of 0.6 mg of copper equivalent (see FIG. 6 for examples). A comparison of the antiangiogenic activity of the compounds of the present invention with divalent metal salts (CuCl2, MgCl2, ZnCl2, CoCl2) and uncoupled alpha-amino acids, alpha-imino acids, dipeptides, and nitrogenated molecules comprising a carboxylic acid group, such as creatine, is provided to illustrate that the formation of the amino acid-copper complex gives rise to complexes having antiangiogenic activity."}, "[3]": {"test_system": "blood vessel formation in the vitelline membrane of chick embryo", "test": "Embryonic Vascularization Test (EVT)", "type": "in vivo", "description": "The Embryonic Vascularization Test (EVT) was performed to determine the ability of test samples to inhibit the formation of new blood vessels (antiangiogenic activity).\nThe normal development of a chick embryo involves the formation of an external vascular system located in the vitelline membrane which carries nutrients from the vitellus (yolk) to the developing embryo. When placed onto the vitelline membrane, antiangiogenic substances can inhibit the blood vessel formation that occurs in the vitelline membrane. Briefly, methylcellulose discs (an inert solid and transparent matrix) containing different test samples were placed on the external border of the vascular perimeter of the vitelline membrane, where the angiogenic process occurs. Vascularization was assessed 24 hours after disc deposition, and results were expressed as the percent of embryos in which blood vessel formation was affected. The blood vessel formation was considered affected when its growing path was either deviated, or diminished or when there was no growth observed beyond the disc as compared to the negative control. The results are expressed as 0, +, and ++ where 0 is for a lower response than 25 percent of the eggs; + is for a response between 25 and 50 percent; and ++ is for an antiangiogenic response observed in more than 50 percent of the eggs.\nas §3"}, "Endothelial cells [4]": {"test_system": "Endothelial cells", "test": "Endothelial cell tubule formation assay (tubulogenesis)", "type": "cell-based", "set-up": "key to Tubulogenesis: 0: Numerous capillary-like tube forming pentagonal network; +: Decrease of capillary-like tubes; ++: Dramatic decrease of capillary-like tubes; +++: Absence of capillary-like tubes", "description": "The endothelial cell tubule formation assay is a semi-quantitative assay that was performed to determine the ability of test samples to inhibit this multi-step process, which involves cell adhesion, migration, differentiation and growth, using a commercial kit (Chemicon). Briefly, endothelial cells were seeded on solid gel of Ecmatrix™ (Chemicon), basement proteins prepared from the Engelbreth Holm-Swarm (EHS) mouse tumor in microplate in a E-99 media (Sigma) supplemented with 5% FBS and VEGF (50 ng/ml) in the presence or absence of the test sample. Cells were incubated for a period of 24 hours at 37° C. Pictures were taken on the entire tissue culture dish using a binocular microscope for further evaluation."}, "[5]": {"test_system": "Striated muscle cells (skeletal muscle cells)", "test": "Striated muscle cell proliferation", "type": "cell-based", "conditions": "48 hours; free amino acids and Glu-Trp 2.5 mM, CuCl2 1.25 mM", "description": "as §1, §2"}, "human dermal fibroblasts": {"test_system": "human dermal fibroblasts", "test": "Fibroblast proliferation", "type": "cell-based", "conditions": "48 hours; free amino acids and Glu-Trp 2.5 mM, CuCl2 1.25 mM", "description": "as §1, §2"}}, "data": [{"substance": "L-Asp Cu L-Asp [Compound 6]", "values": [{"measurement": "Cell migration activity (in words)", "setting": "Endothelial cells [1]", "result": "important activity"}, {"measurement": "Migration % of inhibition", "setting": "Endothelial cells [1]; 1.25 mmole (equivalent copper), VEGF chemoattractant, 4.5 hours", "result": "82% of inhibition"}, {"measurement": "Cell Migration (% inhibition)", "setting": "Endothelial cells [1]; copper complexes, concentration not given, VEGF, 4.5 hours", "result": 82, "unit": "%"}, {"measurement": "EC50", "setting": "[2]", "result": 0.29, "unit": "mM"}, {"measurement": "EVT (% of inhibition)", "setting": "[3]; 0.6 mg copper equivalent, percent of embryos with affected blood vessel formation, 24 hours after disc deposition", "result": "±38% of inhibition"}, {"measurement": "EVT (% of inhibition)", "setting": "[3]; activity at 0.6 mg equivalent Copper", "result": "+ (+ between 25-50% of inhibition)"}, {"measurement": "Tubulogenesis activity (in words)", "setting": "Endothelial cells [4]", "result": "important activity"}, {"measurement": "Tubulogenesis (in words)", "setting": "Endothelial cells [4]; 1.25 mmole (equivalent copper), 24 hours", "result": "Decrease of capillary-like tube formation"}, {"measurement": "Tubulogenesis", "setting": "Endothelial cells [4]; copper complexes, concentration not given, VEGF 50 ng/ml, 24 hours", "result": "+"}, {"measurement": "Striated muscle (EC50 (mM))", "setting": "[5]", "result": "Non-active"}, {"measurement": "EC50", "setting": "human dermal fibroblasts", "result": 1.15, "unit": "mM"}]}]}
